Measurements reported in patent publication US11807895B2, “High-throughput drug and genetic assays for cellular transformation” (THE BROAD INSTITUTE, INC., priority 2015, dated 2023).
Entries after “also recorded” stand apart in the source; their conditions may differ. Structures can show the parent of a compound that is named as a salt.

What was measured:
[1] = system: fibroblasts transformed with TERT, SV40 T-antigen, and H-RAS; assay: GILA (growth in low attachment) drug screen, ATP/CellTiter-Glo viability; format: cell-based, human; details: 633 kinase inhibitors and FDA-approved drugs screened at 30 μM or 10 μM, 5 days
Description: To identify drugs specifically inhibiting the oncogenic state of fibroblasts transformed with TERT, SV40 T-antigen, and H-RAS (Hahn W C, et al. (1999) Creation of human tumour cells with defined genetic elements. Nature 400:464-468.), GILA was used as a primary screen and growth on standard high-attachment plates as a counterscreen.
Transformed fibroblast cells were maintained as subconfluent monolayers, trypsinized, and seeded in 96-well plates (for analytical assays, FIG. 14) or in 384-well white plates (for screens, FIG. 3). The cell concentration was optimized to 1000 cells/well in 100 μl medium (for 96-well plate) or 50 cells/well in 30 μl growth medium (for 384-well plate). Two types of plates were used in the screens: high-attachment conditions (Corning, 3704) and Ultra Low-attachment (Sumitomo, PrimeSurface384U). Cells were seeded automatically using the liquid rapid dispenser Metrix WellMate (Thermo). Two small molecule libraries (NIH Clinical Collection 1-2013 and Kinase Inhibitor Focused Library) were transferred to each microplate, at 100 nl drug per well, to final concentration of 30 μM or 10 μM, respectively, by using the robotic transfer system (Seiko Epson) and pin array (V&P). Controls were added by multichannel pipette. After 5 days of incubation at 37° C. in 5% CO2, the cells were assayed for ATP content. […] The secondary screen was conducted similarly, except that an HP D300 Digital Liquid Dispenser and T8 dispenseheads (HP) was used to add 4 different concentrations of small molecules to the cells.
Crosstalk corrected values from EnVision reader were used to normalize the luminescence from each wells.

[2] = system: ascites-derived ovarian cancer cells from patients; assay: Ex-vivo GILA drug sensitivity of patient-derived cancer cells; format: cell-based, human; details: for inhibitory activity in ex-vivo GILA assay: 5 patients who failed multiple lines of treatment, 5000 cells per well, 72 hours; for dose dependence of viability in ex-vivo GILA: ovary cancer patient derived cells
Method: Patient-derived ovarian cancer cells are sensitive to FDA-approved drugs identified in the GILA-based screen. […] Immediately after procurement, ascites samples were processed and 5000 cells per well were flow-sorted into 96-well microtiter plates with low or high-attachment surfaces containing 100 μl of growth medium per well.
Cell viability was measured with the CellTiter-Glo (Promega) luminescent assay, using the EnVision Plate Reader (PerkinElmer) or the SpectraMax M5 Multi-Mode Microplate Reader (Molecular Devices). For high-attachment growth, tissue culture-treated 96-well clear plates (#3997, Corning) were used, while for the GILA assay low attachment surface plates (#3474, Corning) of 96-well clear plates were used for 3 to 5 days. Later the cells were moved to 96-Well Solid White Polystyrene Microplate (#3362, 14 Corning) for reading luminescence signal. To avoid bleeding of luminescence between the wells, every other well left empty in the solid white microplate. 30 μl of CTG reagent was used for 384-well microplates, and 100 μl for 96-well microplates. The cells were moderately shaken for 5 minutes in the reagent, followed by incubation for 20 minutes to ensure cell lysis. No background signal was detected from wells containing only culture medium.
Under an institutional review board approved protocol, freshly discarded ascites from patients with advanced stage ovarian cancers was collected from 5 individuals. Ascites fluid was immediately transferred on ice for further processing. Samples were spun down and red blood cells were removed with hypotonic lysis using ACK lysing buffer (Life Technologies). Cells were filtered through a 40 μm mesh and washed in PBS with 2% FBS and subjected to staining for FACS.
Cells were prepared per standard protocols, stained with Calcein-AM, CD45-FITC, EPCAM-PE and CD24-PE/Cy7 and incubated for 20 minutes on ice. Cells were washed with […] prior to flow-sorting. After doublet discrimination and compensation for spectral overlap, single, viable cells, negative for CD45 and positive for EPCAM and CD24 were flow-sorted into wells (96 well plates) prepared with growth 15 medium. Samples were sorted on a BD FACSAria SORP and analyzed using BD FACSDiva Software (BD Biosciences).

IL-6 = details: Hong et al. 2012: LPS-stimulated mouse macrophages and TG-injected mice; cited from earlier work
[3] = listed as Azelastine hydrochloride, hydrochloride

**Q.** For `Cc1cccc(-c2[nH]ncc2-c2ccc3ncccc3n2)n1` [RepSox], which “hit in GILA-based drug screen (inhibits growth in low attachment, less pronounced effect on high attachment)” value [1] is on record?
**A.** The value was “identified and validated in the drug screen”.

**Q.** With `CN1CCCC(n2nc(Cc3ccc(Cl)cc3)c3ccccc3c2=O)CC1` (stereo not drawn) [azelastine hydrochloride] as the molecule, how does the “inhibitory activity in ex-vivo GILA assay” value [2, 3] read?
**A.** Its value is “highly effective at inhibiting growth”.

**Q.** What about the “inhibitory activity in ex-vivo GILA assay” value ([2]; listed as azelastine, hydrochloride) of the same molecule?
**A.** The value was “demonstrated inhibitory activity”.

**Q.** What about the “dose dependence of viability in ex-vivo GILA” value ([2]; hydrochloride) of the same molecule?
**A.** Its value is “dose dependent response”.

**Q.** And the “dose dependence of viability in ex-vivo GILA” value [2, 3]?
**A.** Its value is “concentration-dependent viability”.

**Q.** What about the “hit in GILA-based drug screen (inhibits growth in low attachment, less pronounced effect on high attachment)” value [1] of the same molecule?
**A.** The value was “identified and validated in the drug screen”.

**Q.** For `C=C1/C(=C\C=C2/CCC[C@]3(C)[C@@H]([C@H](C)/C=C/[C@@H](O)C4CC4)CC[C@@H]23)C[C@@H](O)C[C@@H]1O` [calcipotriol], which “hit in GILA-based drug screen (inhibits growth in low attachment, less pronounced effect on high attachment)” value [1] is on record?
**A.** The value was “top hits”.

**Q.** Which results are given for `CC(=O)Oc1ccccc1C(=O)Nc1ncc([N+](=O)[O-])s1` [nitazoxanide]?
**A.** IL-6 suppression (IL-6): suppresses IL-6; inhibitory activity in ex-vivo GILA assay [2]: demonstrated inhibitory activity; hit in GILA-based drug screen (inhibits growth in low attachment, less pronounced effect on high attachment) [1]: top hits; also recorded: identified and validated in the drug screen

**Q.** With `COc1ccc(-c2cc(=O)c3c(OC)c(OC)c(OC)c(OC)c3o2)cc1OC` [nobiletin] as the molecule, how does the “hit in GILA-based drug screen (inhibits growth in low attachment, less pronounced effect on high attachment)” value [1] read?
**A.** The value was “identified and validated in the drug screen”.

**Q.** For `CC(C)CC(N(C)C)C1(c2ccc(Cl)cc2)CCC1` (stereo not drawn) [sibutramine], which “hit in GILA-based drug screen (inhibits growth in low attachment, less pronounced effect on high attachment)” value [1] is on record?
**A.** Its value is “top hits”.
